Measurements as given in patent US12220390B2, “Mirdametinib treatment” (SpringWorks Therapeutics, Inc., priority 2022, dated 2025).

Test system: patients ≥2 and <25 years with brain cancer
Test: Phase I/II trial of single agent mirdametinib in children, adolescents and young adults with brain cancer
Format: in vivo, human
Method: A multi-arm phase I/II trial of mirdametinib is to be conducted in patients ≥2 and <25 years with brain cancer. Phase I requires participants have no prior exposure to MEK inhibitors and recurrent/progressive disease with biopsy-proven evidence of MAPK pathway activation. Three escalating dose levels (2 mg/m^2/dose BID, 2.5 mg/m^2/dose BID and 3 mg/m^2/dose BID) are planned using a rolling 6 design. The median age enrolled in the study is 10 years old (3-21).

[1] = patients with brain cancer, 2-3 mg/m^2/dose BID

`O=C(NOC[C@H](O)CO)c1ccc(F)c(F)c1Nc1ccc(I)cc1F` (single isomer, unassigned) [mirdametinib] was tested, and the dose-limiting toxicities (all three dose levels (2, 2.5 and 3 mg/m^2/dose BID), continuous dosing, patients with brain cancer) was “No dose-limiting toxicities”, the tolerability (dosed continuously in patients with brain cancer) was “well-tolerated” and the “MEK related retinopathy or cardiopathy” value [1] was “No MEK related retinopathy or cardiopathy is observed”. The disease progressions [1] was “No disease progressions”.
